Measurements from patent US6348214B1, “Materials and methods for making improved liposome compositions” (The Board of Trustees of the Illinois, priority 1996, dated 2002).
Ends that are not written are not given here.

Legend:
[1] = test system: second-order arterioles in the cheek pouch of hamsters with spontaneous hypertension; assay: Arteriolar diameter in hamster cheek pouch microcirculation, hamsters with spontaneous hypertension; format: in vivo
Method: (§1) Adult male hamsters with spontaneous hypertension (n=21) and age- and genetically-matched normotensive controls (n=20) were purchased from the Canadian Hybrid Farns, Halls Harbor, NS, Canada. In preparation, the animals were anesthetized interperitoneally with sodium pentobarbital (6 mg/100 g body weight) and a tracheostomy was performed to facilitate spontaneous breathing. The left femoral vein was cannulated to inject supplemental anesthesia (2 to 4 mg per 100 g body weight per hour) during the experiment. A catheter was inserted into the left femoral artery to record systemic arterial pressure and heart rate. Body temperature was monitored to maintain a constant 37-38° C. throughout the experiment using a heating pad.
(§2) In order to visualize microcirculation of the cheek pouch, previously described methods were employed [Gao, et al., Life Sci. 64: PL274-PL252 (1994); Mayhan and Joyner, Microvasc. Res. 28: 159-179 (1984); Mayban and Rubinstein, Biochem. Biophys. Res. Commun. 184:1372-1377 (1992); Raud, Acta Physiol. Scand. Suppl. 578:1-58 (1989); Rubinstein and Mayban, J. Lab. Clin. Med. 25:313-318 (1995); Rubinstein, et al., Am. J. Physiol. 261 (Heart Circ. Physiol. 30):111913-111918 (1991); and Suzuki, et al., Life Sci. 57:1451-1457 (1995)]. Briefly, the left cheek pouch was spread over a small plastic baseplate, and an incision was made in the outer skin to expose, the cheek pouch membrane. […]
(§3) Change in arteriolar diameter was determined as follows. […] The inner wall diameter of secondorder arterioles in the cheek pouch was measured from the video display of the microscope image using a videomicrometer (VIA-100, Boeckeler Instruments, Tucson, Ariz.). […]
VIP alone or encapsulated in liposomes was suffused for 7 minutes at a concentration of VIP of either 0.05 or 0.1 nmol peptide, and more than 30 minutes elapsed between subsequent applications of the peptide. Changes in arteriolar diameter before, during, and after topical application of VIP were determined as outlined above. […]

[2] = test system: second-order arterioles in the cheek pouch of normotensive hamsters; assay: Arteriolar diameter in hamster cheek pouch microcirculation, normotensive hamsters; format: in vivo; details: Example 1; 0.05 or 0.1 nmol VIP suffused for 7 minutes
Method: According to another experiment, normotensive hamsters were suffused onto the cheek pouch for 7 minutes with 0.1 nmol VIP-PEG-liposome composition which produced a significant increase in mean arterial diameter in situ. The results of this experiment are shown in FIG. 3 with data and significance indicated for results in FIGS. 2A and 2B above. […] Arterial diameter returned to baseline 9 minutes after suffusion was discontinued.
as §1, §2, §3

[3] = test system: hamsters with spontaneous hypertension; assay: Mean arterial pressure after intravenous administration, hamsters with spontaneous hypertension; format: in vivo, hamster
Text: The provisional application further disclosed that a bolus intravenous injection of 1.0 nmol VIP-PEG-liposome compound acted to decrease mean arterial pressure (MAP) in hamsters with spontaneous hypertension. The results are reproduced herein as FIGS. 2A and 2B; FIG. 2A showing the actual decrease on arterial pressure and FIG. 2B showing the percent change. Data are mean values ± one standard error of the mean; an asterisk indicates statistically significant values compared to control with p value less than 0.05.
In examining the duration and efficacy of VIP in the two liposome preparations on mean arterial pressure, the following procedure was carried out. Adult mate hamsters with spontaneous hypertension (n=12) were obtained from the Canadian Hybrid Farms (Hall Harbour, Nova Scotia, Canada). Approximately 500 μl each of three test preparations, liposomes prepared by the second method above, VIP in aqueous solution, and liposomes without VIP, were injected administered over the course of 1 minute in the femoral vein. Continuous anesthesia of the animals limited the duration of the experiment to 6 hours.
Adult male golden Syrian hypertensive hamsters were prepared for intravital microscopy, cheek pouch microcirculation observed and measured, and mean arterial pressure determined, each technique as described above. […]

neutrophil = assay: Neutrophil chemotaxis in two chamber apparatus (response to fmlp); format: cell-based; details: FIG. 5
Text: Finally, as another experiment the effect of VIP-PEG-liposomes on neutrophil chemotaxis was examined using a two chamber apparatus routinely employed for in vitro analysis of chemotaxis. Neutrophil migration from the upper chamber into the lower chamber in response to formyl-methionyl-leucyl-phenylalanyl (fmlp) peptide in the lower chamber was initially established at a baseline control.

[4] = test system: second-order arterioles in the cheek pouch of normotensive hamsters; details: 0.1 nmol VIP dissolved in saline; Suzuki et al. 1995; cited from earlier work

Molecule	vasorelaxation, hypertensive versus normotensive hamsters ([1]; Example 1, endothelium independent vasodilator control in the cheek pouch)	effect on arteriolar diameter [2]	time after suffusion was stopped until return to baseline / persistence of vasodilation [2]	time to maximal response from start of suffusion [2]	effect on arteriolar diameter ([1]; Example 1, 0.05 or 0.1 nmol VIP suffused for 7 minutes)	effect on arteriolar diameter ([1]; Example 5, hypertensive hamsters, suffusion for 7 minutes)	effect on mean arterial pressure ([3]; Example 3, injected in the femoral vein over 1 minute)	effect on mean arterial pressure ([3]; Example 5, hypertensive hamsters)	neutrophil migration against fmlp in the lower chamber (neutrophil; test substance added with neutrophils in the upper chamber)	neutrophil migration against test substance in the lower chamber (neutrophil; test substance in lower chamber, no fmlp)	increase in arteriolar diameter [4]
O=[N+]([O-])OCC(CO[N+](=O)[O-])O[N+](=O)[O-] [nitroglycerin]	vasorelaxation of similar magnitude in both groups	–	–	–	–	–	–	–	–	–	–
vasoactive intestinal peptide (HSDAVFTDNYTRLRKQMAVKKYLNSILN; ends and bridges not checked; UniProt P01282 125-152, looked up) [VIP]	–	significant vasodilation	≤ 1 min	≤ 4 min	no significant effects on arteriolar diameter	no effects	No significant effect on mean arterial pressure	no effect	significant migration was observed	negligible	approximately 10%
